Assay: xn = mol fraction of the nth substance listed
Conditions: 101 kPa, Liquid; for electrical conductivity: DDS-307 conductivity meter

CCCCCCn1cc[n+](C)c1C.O=S(=O)([N-]S(=O)(=O)C(F)(F)F)C(F)(F)F + COC(=O)OC
Conditions	electrical conductivity [S/m]	mass density [kg/m3]
293.15 K, x1 = 0.0466	–	1120.02
293.15 K, x1 = 0.0774	–	1145.97
293.15 K, x1 = 0.1154	–	1173.26
293.15 K, x1 = 0.1633	–	1201.7
293.15 K, x1 = 0.2269	–	1231.14
293.15 K, x1 = 0.3131	–	1261.37
293.15 K, x1 = 0.4385	–	1292.48
293.15 K, x1 = 0.6368	–	1324.48
293.15 K, x1 = 0.7472	–	1337.22
293.15 K, x1 = 1	–	1358.19
298.15 K, x1 = 0.0466	0.34	1113.88
298.15 K, x1 = 0.0774	0.579	1140.01
298.15 K, x1 = 0.1154	0.755	1167.46
298.15 K, x1 = 0.1633	0.839	1195.92
298.15 K, x1 = 0.2269	0.813	1225.5
298.15 K, x1 = 0.3131	0.631	1255.94
298.15 K, x1 = 0.4385	0.509	1287.18
298.15 K, x1 = 0.6368	0.23	1319.32
298.15 K, x1 = 0.7472	0.164	1332.18
298.15 K, x1 = 1	0.108	1353.11
303.15 K, x1 = 0.0466	0.378	1107.71
303.15 K, x1 = 0.0774	0.649	1134.13
303.15 K, x1 = 0.1154	0.82	1161.84
303.15 K, x1 = 0.1633	0.893	1190.53
303.15 K, x1 = 0.2269	0.862	1220.22
303.15 K, x1 = 0.3131	0.689	1250.93
303.15 K, x1 = 0.4385	0.553	1282.32
303.15 K, x1 = 0.6368	0.296	1314.7
303.15 K, x1 = 0.7472	0.209	1327.65
303.15 K, x1 = 1	0.158	1348.71
308.15 K, x1 = 0.0466	0.416	1101.52
308.15 K, x1 = 0.0774	0.718	1128.2
308.15 K, x1 = 0.1154	0.884	1156.12
308.15 K, x1 = 0.1633	0.947	1185.04
308.15 K, x1 = 0.2269	0.91	1214.85
308.15 K, x1 = 0.3131	0.751	1245.85
308.15 K, x1 = 0.4385	0.61	1277.48
308.15 K, x1 = 0.6368	0.361	1310.14
308.15 K, x1 = 0.7472	0.275	1323.1
308.15 K, x1 = 1	0.213	1344.29
313.15 K, x1 = 0.0466	0.454	1096.1
313.15 K, x1 = 0.0774	0.788	1123
313.15 K, x1 = 0.1154	0.949	1151.09
313.15 K, x1 = 0.1633	1	1180.2
313.15 K, x1 = 0.2269	0.959	1210.16
313.15 K, x1 = 0.3131	0.812	1241.28
313.15 K, x1 = 0.4385	0.667	1272.94
313.15 K, x1 = 0.6368	0.433	1305.67
313.15 K, x1 = 0.7472	0.35	1318.62
313.15 K, x1 = 1	0.271	1339.88
318.15 K, x1 = 0.0466	0.492	1089.11
318.15 K, x1 = 0.0774	0.857	1116.3
318.15 K, x1 = 0.1154	1.01	1144.64
318.15 K, x1 = 0.1633	1.05	1174.05
318.15 K, x1 = 0.2269	1.01	1204.45
318.15 K, x1 = 0.3131	0.876	1235.85
318.15 K, x1 = 0.4385	0.706	1267.89
318.15 K, x1 = 0.6368	0.492	1300.91
318.15 K, x1 = 0.7472	0.399	1314.09
318.15 K, x1 = 1	0.319	1335.47
323.15 K, x1 = 0.0466	0.53	1082.85
323.15 K, x1 = 0.0774	0.927	1110.32
323.15 K, x1 = 0.1154	1.08	1138.89
323.15 K, x1 = 0.1633	1.11	1168.73
323.15 K, x1 = 0.2269	1.05	1199.16
323.15 K, x1 = 0.3131	0.933	1230.72
323.15 K, x1 = 0.4385	0.782	1263.01
323.15 K, x1 = 0.6368	0.548	1296.31
323.15 K, x1 = 0.7472	0.469	1309.51
323.15 K, x1 = 1	0.369	1331.06
328.15 K, x1 = 0.0466	0.568	1076.68
328.15 K, x1 = 0.0774	0.996	1104.42
328.15 K, x1 = 0.1154	1.14	1133.32
328.15 K, x1 = 0.1633	1.16	1163.27
328.15 K, x1 = 0.2269	1.1	1193.98
328.15 K, x1 = 0.3131	0.998	1225.63
328.15 K, x1 = 0.4385	0.834	1258.14
328.15 K, x1 = 0.6368	0.623	1291.79
328.15 K, x1 = 0.7472	0.537	1304.97
328.15 K, x1 = 1	0.426	1326.65
333.15 K, x1 = 0.0466	0.606	1070.28
333.15 K, x1 = 0.0774	1.07	1098.51
333.15 K, x1 = 0.1154	1.21	1127.61
333.15 K, x1 = 0.1633	1.22	1157.77
333.15 K, x1 = 0.2269	1.15	1188.58
333.15 K, x1 = 0.3131	1.07	1220.43
333.15 K, x1 = 0.4385	0.915	1253.16
333.15 K, x1 = 0.6368	0.686	1287.1
333.15 K, x1 = 0.7472	0.605	1300.47
333.15 K, x1 = 1	0.48	1322.24

Reference: the NIST ThermoML archive (doi:10.1021/je100679s)
